# Measurements as given in patent publication US20250034147A1, “MDM2 DEGRADERS AND USES THEREOF” (Kymera Therapeutics, Inc., priority 2021, published 2025).
# What was measured:
# [1] = target: T1, HiBiT-tagged MDM2 (Homo sapiens, UniProt Q00987); assay: MDM2 HiBit HEK293T degradation; type: cell-based; conditions: HEK293T cells stably expressing C-terminally HiBiT-tagged MDM2; 4 h; read-out: MDM2 HiBit HEK293T degradation 4 h: Average external-Abs DC50
# T1 construct: expressed in transfected cells
# T1 sequence (Q00987 whole entry): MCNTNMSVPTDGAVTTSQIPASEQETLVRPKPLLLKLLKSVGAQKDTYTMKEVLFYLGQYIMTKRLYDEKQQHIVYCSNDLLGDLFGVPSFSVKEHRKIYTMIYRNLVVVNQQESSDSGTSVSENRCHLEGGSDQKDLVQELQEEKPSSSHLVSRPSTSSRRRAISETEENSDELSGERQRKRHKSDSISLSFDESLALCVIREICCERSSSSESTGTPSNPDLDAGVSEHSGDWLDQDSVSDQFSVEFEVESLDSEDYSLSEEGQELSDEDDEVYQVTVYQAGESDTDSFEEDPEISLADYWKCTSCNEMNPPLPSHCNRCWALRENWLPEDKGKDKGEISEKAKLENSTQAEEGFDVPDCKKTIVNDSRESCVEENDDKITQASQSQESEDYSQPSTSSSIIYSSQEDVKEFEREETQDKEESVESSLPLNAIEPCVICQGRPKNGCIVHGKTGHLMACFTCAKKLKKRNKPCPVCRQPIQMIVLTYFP
# Procedure, shortened: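 Degradation was measured in HEK293T cells stably expressing C-terminally HiBiT-tagged MDM2, a pool selected with 1 microgram/ml puromycin. A MDM2 tool degrader and HaloPROTAC3 served as positive controls. Potency is reported as DC50 in letter bins.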
# [2] = test system: RS411 cells; assay: Cell Viability CTG Assay; type: cell-based; conditions: Homo sapiens, RS4-11, CellTiter Glo (CTG) cell viability, read-out: Average external-IC50
# Procedure, shortened: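 RS411 cells (1000/well) exposed 1 day at 37 °C to compound, 11-point 3-fold dilution from 10 μM top, 0.2% DMSO final. Viability read by CellTiter-Glo luminescence; IC50 reported as letter bins.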
SMILES,DC50 [1],IC50 [2]
O=C1CCC(n2c(=O)n(CCP(=O)(O)O)c3cc(C4CCN(C(=O)[C@H]5CC[C@H](NC(=O)[C@@H]6NC7(CCCCC7)[C@@]7(C(=O)Nc8cc(Cl)ccc87)[C@H]6c6cccc(Cl)c6F)CC5)CC4)ccc32)C(=O)N1 (stereo partly drawn) [I-40],10 to 100 nM,50 to 500 nM
Cc1ccc2c(c1)NC(=O)[C@]21[C@@H](c2cccc(C)c2F)[C@H](C(=O)N[C@H]2CC[C@H](C(=O)N3CCN(CCCc4ccc5c(c4)n(C)c(=O)n5C4CCC(=O)NC4=O)CC3)CC2)NC12CCCCC2 (stereo partly drawn) [I-55],10 to 100 nM,> 500 nM
O=C1CCC(n2c(=O)n(CP(=O)(O)O)c3cc(C4CCN(C(=O)[C@H]5CC[C@H](NC(=O)[C@@H]6NC7(CCCCC7)[C@@]7(C(=O)Nc8cc(Cl)ccc87)[C@H]6c6cccc(Cl)c6F)CC5)CC4)ccc32)C(=O)N1 (stereo partly drawn) [I-35],100 to 1000 nM,50 to 500 nM
O=C(N[C@H]1CC[C@H](CN2CCC(CCCCCC3CCN(C[C@H]4CC[C@H](NC(=O)[C@@H]5NC6(CCCCC6)[C@@]6(C(=O)Nc7cc(Cl)ccc76)[C@H]5c5cccc(Cl)c5F)CC4)CC3)CC2)CC1)[C@@H]1NC2(CCCCC2)[C@@]2(C(=O)Nc3cc(Cl)ccc32)[C@H]1c1cccc(Cl)c1F [I-87],> 1000 nM,> 500 nM
COc1cc2c(cc1OC(C)C)[C@H](c1ccc(Cl)cc1)N(c1ccc(N(C)C[C@H]3CC[C@H](c4ccc5c(c4)n(C)c(=O)n5C4CCC(=O)NC4=O)CC3)cc1)C(=O)C2 (stereo partly drawn) [I-74],< 10 nM,5 to 50 nM
Cn1c(=O)n(C2CCC(=O)NC2=O)c2ccc(C3CCN(C(=O)[C@@H]4CC[C@@H](NC(=O)[C@@H]5NC6(CCCCC6)[C@@]6(C(=O)Nc7cc(Cl)ccc76)[C@H]5c5cccc(Cl)c5F)CO4)CC3)cc21 (stereo partly drawn) [I-37],< 10 nM,< 5 nM
CCCc1ccc2c(c1)NC(=O)[C@]21[C@@H](c2cccc(Cl)c2F)[C@H](C(=O)N[C@H]2CC[C@H](CN3CCC(c4ccc5c(c4)n(C)c(=O)n5C4CCC(=O)NC4=O)CC3)CC2)NC12CCCCC2 (stereo partly drawn) [I-79],< 10 nM,> 500 nM
COc1cc2c(cc1OC(C)C)[C@H](c1ccc(Cl)cc1)N(c1ccc(N(C)CC(=O)N3CCN(CCCCCCc4ccc5c(c4)n(C)c(=O)n5C4CCC(=O)NC4=O)CC3)cc1)C(=O)C2 (stereo partly drawn) [I-48],> 1000 nM,> 500 nM
COc1cc2c(cc1OC(C)C)[C@H](c1ccc(Cl)cc1)N(c1ccc(N(C)CC3CCN(c4ccc5c(c4)n(C)c(=O)n5C4CCC(=O)NC4=O)CC3)cc1)C(=O)C2 (stereo partly drawn) [I-62],< 10 nM,5 to 50 nM
COc1cc2c(cc1OC(C)C)[C@H](c1ccc(Cl)cc1)N(c1ccc(N(C)CC3CCN(CCCCc4ccc5c(c4)n(C)c(=O)n5C4CCC(=O)NC4=O)CC3)cc1)C(=O)C2 (stereo partly drawn) [I-4],10 to 100 nM,< 5 nM
Cn1c(=O)n(C2CCC(=O)NC2=O)c2ccc(N3CCN(CC4CCN(C(=O)[C@H]5CC[C@H](NC(=O)[C@@H]6NC7(CCCCC7)[C@@]7(C(=O)Nc8cc(Cl)ccc87)[C@H]6c6cccc(Cl)c6F)CC5)CC4)CC3)cc21 (stereo partly drawn) [I-15],< 10 nM,< 5 nM
Cn1c(=O)n(C2CCC(=O)NC2=O)c2ccc(CCCN3CCN(C[C@H]4CC[C@H](NC(=O)[C@@H]5NC6(CCC(C)(C)CC6)[C@@]6(C(=O)Nc7cc(Cl)ccc76)[C@H]5c5cccc(Cl)c5F)CC4)CC3)cc21 (stereo partly drawn) [I-72],< 10 nM,< 5 nM
Cn1c(=O)n(C2CCC(=O)NC2=O)c2ccc(C3CCN(C[C@@H]4CC[C@@H](NC(=O)[C@@H]5NC6(CCC(C)(C)CC6)[C@@]6(C(=O)Nc7cc(Cl)ccc76)[C@H]5c5ccnc(Cl)c5F)CO4)CC3)cc21 (stereo partly drawn) [I-76],< 10 nM,< 5 nM
Cn1c(=O)n(C2CCC(=O)NC2=O)c2ccc(C3=CCN(C[C@H]4CC[C@H](NC(=O)[C@@H]5NC6(CCCCC6)[C@@]6(C(=O)Nc7cc(Cl)ccc76)[C@H]5c5cccc(Cl)c5F)CC4)CC3)cc21 (stereo partly drawn) [I-5],< 10 nM,< 5 nM
CCOc1ccc2c(c1)NC(=O)[C@]21[C@@H](c2cccc(Cl)c2F)[C@H](C(=O)N[C@H]2CC[C@H](CN3CCC(c4ccc5c(c4)n(C)c(=O)n5C4CCC(=O)NC4=O)CC3)CC2)NC12CCCCC2 (stereo partly drawn) [I-95],100 to 1000 nM,> 500 nM
Cn1c(=O)n(C2CCC(=O)NC2=O)c2ccc(CCCN3CCN(C(=O)[C@H]4CC[C@H](NC(=O)[C@@H]5NC6(CCCCC6)[C@@]6(C(=O)Nc7cc(Cl)ccc76)[C@H]5c5cccc(Cl)c5F)CC4)CC3)cc21 (stereo partly drawn) [I-30],< 10 nM,< 5 nM
Cn1c(=O)n(C2CCC(=O)NC2=O)c2ccc(CN3CCC(OC4CCN(Cc5ccc(NC(=O)[C@@H]6NC7(CCCCC7)[C@@]7(C(=O)Nc8cc(Cl)ccc87)[C@H]6c6cccc(Cl)c6F)cc5)CC4)CC3)cc21 (stereo partly drawn) [I-10],< 10 nM,< 5 nM

# Now from value to compound:
DC50 [1],IC50 [2],SMILES
< 10 nM,< 5 nM,"Cn1c(=O)n(C2CCC(=O)NC2=O)c2ccc(CN3CC(OC4CCN(C[C@H]5CC[C@H](NC(=O)[C@@H]6NC7(CCCCC7)[C@@]7(C(=O)Nc8cc(Cl)ccc87)[C@H]6c6cccc(Cl)c6F)CC5)CC4)C3)cc21 (stereo partly drawn) [I-47, (3′R,4′S,5′S)-6″-chloro-4′-(3-chloro-2-fluorophenyl)-N-((1r,4S)-4-((4-((1-((1-(2,6-dioxopiperidin-3-yl)-3-methyl-2-oxo-2,3-dihydro-1H-benzo[d]imidazol-5-yl)methyl)azetidin-3-yl)oxy)piperidin-1-yl)methyl)cyclohexyl)-2″-oxodispiro[cyclohexane-1,2′-pyrrolidine-3′,3″-indoline]-5′-carboxamide]"
< 10 nM,< 5 nM,COc1cc2c(cc1OC(C)C)[C@H](c1ccc(Cl)cc1)N(c1ccc(N(C)C[C@H]3CC[C@H](N4CCN(Cc5ccc6c(c5)n(C)c(=O)n6C5CCC(=O)NC5=O)CC4)CC3)cc1)C(=O)C2 (stereo partly drawn) [I-60]
< 10 nM,< 5 nM,Cn1c(=O)n(C2CCC(=O)NC2=O)c2ccc(CCN3CCN(CCCN4CCC(NC(=O)[C@@H]5NC6(CCC(C)(C)CC6)[C@@]6(C(=O)Nc7cc(Cl)ccc76)[C@H]5c5ccnc(Cl)c5F)CC4)CC3)cc21 (stereo partly drawn) [I-20]
< 10 nM,5 to 50 nM,Cn1c(=O)n(C2CCC(=O)NC2=O)c2ccc(C3CCN(CCCN4CCC(NC(=O)[C@@H]5NC6(CCCCC6)[C@@]6(C(=O)Nc7cc(Cl)ccc76)[C@H]5c5cccc(Cl)c5F)CC4)CC3)cc21 (stereo partly drawn) [I-39]
< 10 nM,< 5 nM,Cn1c(=O)n(C2CCC(=O)NC2=O)c2ccc(N3CC4(CN(C[C@H]5CC[C@H](NC(=O)[C@@H]6NC7(CCCCC7)[C@@]7(C(=O)Nc8cc(Cl)ccc87)[C@H]6c6cccc(Cl)c6F)CC5)C4)C3)cc21 (stereo partly drawn) [I-88]
< 10 nM,< 5 nM,Cn1c(=O)n(C2CCC(=O)NC2=O)c2ccc(N3CC4(CCN(C[C@H]5CC[C@H](NC(=O)[C@@H]6NC7(CCCCC7)[C@@]7(C(=O)Nc8cc(Cl)ccc87)[C@H]6c6cccc(Cl)c6F)CC5)CC4)C3)cc21 (stereo partly drawn) [I-16]
< 10 nM,< 5 nM,Cn1c(=O)n(C2CCC(=O)NC2=O)c2ccc(CCN3CCN(CCCN4CCC(NC(=O)[C@@H]5NC6(CCCCC6)[C@@]6(C(=O)Nc7cc(Cl)ccc76)[C@H]5c5cccc(Cl)c5F)CC4)CC3)cc21 (stereo partly drawn) [I-78]
